Values after ≈ are worked out from the molar mass of the structure shown. Where two headings read alike, the source gives them in different places.
How the values were obtained:
[1] = tested on: Staphylococcus aureus (including MRSA); assay: MIC in broth against Staphylococcus aureus (including MRSA); assay type: cell-based; parameters: MIC against Staphylococcus aureus including MRSA: unit: μg/mL
Procedure: (§1) The antimicrobial efficacy of twenty-five antimicrobial polymers (and Erythromycin) was evaluated using an MIC assay. For each study, a doubling dilution concentration of each antimicrobial polymer was prepared at 2× the final concentration range (0.12 to 16 μg/mL), and 100 μL of the API-null formulation was dispensed into the negative control wells. Overall, the antimicrobial polymer-containing compositions performed comparably well, or better, against the pathogens, as compared to Erythromycin (ERY).

[2] = tested on: E. faecalis (Str-15) ATCC 29212; assay: MIC in broth against E. faecalis; assay type: cell-based; settings: Enterococcus faecalis, ATCC29212
Procedure: (§2) The antimicrobial efficacy of twenty-five antimicrobial polymers (and Erythromycin) was evaluated using an MIC assay. […] Overall, the antimicrobial polymer-containing compositions performed comparably well, or better, against the pathogens, as compared to Erythromycin (ERY).

[3] = tested on: S. pneumoniae (Str-53) ATCC 49619; assay: MIC in broth against S. pneumoniae; assay type: cell-based; settings: Streptococcus pneumoniae, ATCC49619
Procedure: as §2

Histophilus somni = assay: MIC in broth against Histophilus somni; assay type: cell-based
Procedure: as §1

[4] = tested on: Bordetella bronchiseptica; assay: MIC in broth against Bordetella bronchiseptica; assay type: cell-based
Procedure: as §1

Enterobacter species = assay: MIC in broth against Enterobacter species; assay type: cell-based
Procedure: as §1

Klebsiella species = assay: MIC in broth against Klebsiella species; assay type: cell-based
Procedure: as §1

Moraxella bovis = assay: MIC in broth against Moraxella bovis; assay type: cell-based
Procedure: as §1

Pseudomonas aeruginosa = assay: MIC in broth against Pseudomonas aeruginosa; assay type: cell-based; parameters: unit not given beside the values
Procedure: as §1

Streptococcus uberis = assay: MIC in broth against Streptococcus uberis; assay type: cell-based
Procedure: as §1

[5] = tested on: Streptococcus dysgalactiae; assay: MIC in broth against Streptococcus dysgalactiae; assay type: cell-based
Procedure: as §1

[6] = tested on: Staphylococcus aureus (including MRSA); settings: S. aureus (Sta-3) ATCC 29213; cited from earlier work
[7] = tested on: S. pneumoniae (Str-53) ATCC 49619; settings: cited from earlier work

CC[C@H]1OC(=O)[C@H](C)[C@@H](O[C@H]2C[C@@](C)(OC)[C@@H](O)[C@H](C)O2)[C@H](C)[C@@H](O[C@@H]2O[C@H](C)C[C@H](N(C)C)[C@H]2O)[C@](C)(O)C[C@@H](C)C(=O)[C@H](C)[C@@H](O)[C@]1(C)O [Ery, Erythromycin]
MIC ([1]; Staphylococcus aureus, ATCC 29213 / MRSA, S. aureus (Sta-3) ATCC 29213): 0.5 µg/mL (≈ 0.681 µM) | MIC against Staphylococcus aureus including MRSA ([1]; strain # 98): 0.25 | MIC against Staphylococcus aureus including MRSA ([1]; strain # 99): 0.25 | MIC against Staphylococcus aureus including MRSA ([1]; strain # 100): 0.25 | MIC against Staphylococcus aureus including MRSA ([1]; strain # 101): 0.25 | MIC against Staphylococcus aureus including MRSA ([1]; strain # 102): 0.25 | MIC against Staphylococcus aureus including MRSA ([1]; strain # 103): 0.25 | MIC against Staphylococcus aureus including MRSA ([1]; strain # 104): 0.25 | MIC against Staphylococcus aureus including MRSA ([1]; strain # 105): 0.25 | MIC against Staphylococcus aureus including MRSA ([1]; strain # 106): 0.25 | MIC against Staphylococcus aureus including MRSA ([1]; strain # 107): 0.25 | MIC against Staphylococcus aureus including MRSA ([1]; strain # 108): >8 | MIC against Staphylococcus aureus including MRSA ([1]; strain # 109): 1 | MIC against Staphylococcus aureus including MRSA ([1]; strain # 110): >8 | MIC against Staphylococcus aureus including MRSA ([1]; strain # 111): >8 | MIC against Staphylococcus aureus including MRSA ([1]; strain # 112): 0.5 | MIC against Staphylococcus aureus including MRSA ([1]; strain # 113): >8 | MIC against Staphylococcus aureus including MRSA ([1]; strain # 114): >8 | MIC against Staphylococcus aureus including MRSA ([1]; strain # 115): >8 | MIC against Staphylococcus aureus including MRSA ([1]; strain # 116): >8 | MIC against Staphylococcus aureus including MRSA ([1]; strain # 117): >8 | MIC against Staphylococcus aureus including MRSA ([1]; strain # 118): >8 | MIC against Staphylococcus aureus including MRSA ([1]; strain # 119): >8 | MIC against Staphylococcus aureus including MRSA ([1]; strain # 120): >8 | MIC against Staphylococcus aureus including MRSA ([1]; strain # 121): >8 | MIC against Staphylococcus aureus including MRSA ([1]; strain # 122): >8 | MIC against Staphylococcus aureus including MRSA ([1]; strain # 123): >8 | MIC against Staphylococcus aureus including MRSA ([1]; strain # 124): >8 | MIC against Staphylococcus aureus including MRSA ([1]; strain # 125): >8 | MIC against Staphylococcus aureus including MRSA ([1]; strain # 126): >8 | MIC against Staphylococcus aureus including MRSA ([1]; strain # 127): >8 | MIC [2]: 2 µg/mL (≈ 2.73 µM) | MIC [3]: 0.06 µg/mL (≈ 0.0818 µM) | MIC (Histophilus somni; H. somni (H-15) ATTC 700025, read-out: MIC): 1 µg/mL (≈ 1.36 µM) | MIC (Histophilus somni; isolates # 238-240, 243, 246 (BRD), read-out: MIC against Histophilus somni): > 8 µg/mL | MIC (Histophilus somni; isolates # 241, 247 (BRD), read-out: MIC against Histophilus somni): 0.5 µg/mL (≈ 0.681 µM) | MIC (Histophilus somni; isolates # 242, 244, 245 (BRD), read-out: MIC against Histophilus somni): 1 µg/mL (≈ 1.36 µM) | MIC ([4]; isolate # 78 (canine/feline)): 8 µg/mL (≈ 10.9 µM) | MIC ([4]; isolate # 79 (canine/feline)): 8 µg/mL (≈ 10.9 µM) | MIC ([4]; isolate # 80 (canine/feline)): 2 µg/mL (≈ 2.73 µM) | MIC ([4]; isolate # 81 (canine/feline)): 8 µg/mL (≈ 10.9 µM) | MIC ([4]; isolate # 82 (canine/feline)): 2 µg/mL (≈ 2.73 µM) | MIC ([4]; isolate # 83 (canine/feline)): 8 µg/mL (≈ 10.9 µM) | MIC ([4]; isolate # 84 (canine/feline)): 8 µg/mL (≈ 10.9 µM) | MIC ([4]; isolate # 85 (canine/feline)): > 8 µg/mL | MIC ([4]; isolate # 86 (canine/feline)): > 8 µg/mL | MIC ([4]; isolate # 87 (canine/feline)): 8 µg/mL (≈ 10.9 µM) | MIC (Enterobacter species; Enterobacter, isolate # 26 (mastitis)): > 8 µg/mL | MIC against Enterobacter species (Enterobacter species; isolate # 21 (mastitis)): >8 µg/mL | MIC against Enterobacter species (Enterobacter species; isolate # 22 (mastitis)): >8 µg/mL | MIC against Enterobacter species (Enterobacter species; isolate # 23 (mastitis)): >8 µg/mL | MIC against Enterobacter species (Enterobacter species; isolate # 24 (mastitis)): >8 µg/mL | MIC against Enterobacter species (Enterobacter species; isolate # 25 (mastitis)): >8 µg/mL | MIC against Enterobacter species (Enterobacter species; isolate # 27 (mastitis)): >8 µg/mL | MIC (Klebsiella species; Klebsiella, isolate # 28): > 8 µg/mL | MIC against Klebsiella species (Klebsiella species; isolate # 29): >8 µg/mL | MIC against Klebsiella species (Klebsiella species; isolate # 30): >8 µg/mL | MIC against Klebsiella species (Klebsiella species; isolate # 31): >8 µg/mL | MIC against Klebsiella species (Klebsiella species; isolate # 32): >8 µg/mL | MIC against Klebsiella species (Klebsiella species; isolate # 33): >8 µg/mL | MIC against Klebsiella species (Klebsiella species; isolate # 34): >8 µg/mL | MIC against Klebsiella species (Klebsiella species; isolate # 35): >8 µg/mL | MIC against Klebsiella species (Klebsiella species; isolate # 36): >8 µg/mL | MIC against Klebsiella species (Klebsiella species; isolate # 37): >8 µg/mL | MIC against Klebsiella species (Klebsiella species; isolate # 38): >8 µg/mL | MIC against Klebsiella species (Klebsiella species; isolate # 39): >8 µg/mL | MIC against Klebsiella species (Klebsiella species; isolate # 40): >8 µg/mL | MIC against Klebsiella species (Klebsiella species; isolate # 41): >8 µg/mL | MIC against Klebsiella species (Klebsiella species; isolate # 42): >8 µg/mL | MIC against Klebsiella species (Klebsiella species; isolate # 43): >8 µg/mL | MIC against Klebsiella species (Klebsiella species; isolate # 44): >8 µg/mL | MIC against Klebsiella species (Klebsiella species; isolate # 45): >8 µg/mL | MIC against Klebsiella species (Klebsiella species; isolate # 46): >8 µg/mL | MIC against Klebsiella species (Klebsiella species; isolate # 47): >8 µg/mL | MIC (Moraxella bovis; isolate # 88): 0.3 µg/mL (≈ 0.409 µM) | MIC (Moraxella bovis; isolate # 89): 0.5 µg/mL (≈ 0.681 µM) | MIC (Moraxella bovis; isolate # 90): 0.5 µg/mL (≈ 0.681 µM) | MIC (Moraxella bovis; isolate # 91): 1 µg/mL (≈ 1.36 µM) | MIC (Moraxella bovis; isolate # 92): 0.5 µg/mL (≈ 0.681 µM) | MIC (Moraxella bovis; isolate # 93): 0.3 µg/mL (≈ 0.409 µM) | MIC (Moraxella bovis; isolate # 94): 0.5 µg/mL (≈ 0.681 µM) | MIC (Moraxella bovis; isolate # 95): 0.5 µg/mL (≈ 0.681 µM) | MIC (Moraxella bovis; isolate # 96): 0.5 µg/mL (≈ 0.681 µM) | MIC (Moraxella bovis; isolate # 97): 0.5 µg/mL (≈ 0.681 µM) | MIC against Pseudomonas aeruginosa (Pseudomonas aeruginosa; strain # 58): >8 | MIC against Pseudomonas aeruginosa (Pseudomonas aeruginosa; strain # 59): >8 | MIC against Pseudomonas aeruginosa (Pseudomonas aeruginosa; strain # 60): >8 | MIC against Pseudomonas aeruginosa (Pseudomonas aeruginosa; strain # 61): >8 | MIC against Pseudomonas aeruginosa (Pseudomonas aeruginosa; strain # 62): >8 | MIC against Pseudomonas aeruginosa (Pseudomonas aeruginosa; strain # 63): >8 | MIC against Pseudomonas aeruginosa (Pseudomonas aeruginosa; strain # 64): >8 | MIC against Pseudomonas aeruginosa (Pseudomonas aeruginosa; strain # 65): >8 | MIC against Pseudomonas aeruginosa (Pseudomonas aeruginosa; strain # 66): >8 | MIC against Pseudomonas aeruginosa (Pseudomonas aeruginosa; strain # 67): >8 | MIC (Streptococcus uberis; isolate # 218): 0.06 µg/mL (≈ 0.0818 µM) | MIC (Streptococcus uberis; isolate # 219): 0.5 µg/mL (≈ 0.681 µM) | MIC (Streptococcus uberis; isolate # 220): 0.06 µg/mL (≈ 0.0818 µM) | MIC (Streptococcus uberis; isolate # 221): 1 µg/mL (≈ 1.36 µM) | MIC (Streptococcus uberis; isolate # 222): 0.06 µg/mL (≈ 0.0818 µM) | MIC (Streptococcus uberis; isolate # 223): 0.06 µg/mL (≈ 0.0818 µM) | MIC (Streptococcus uberis; isolate # 224): 0.06 µg/mL (≈ 0.0818 µM) | MIC (Streptococcus uberis; isolate # 225): 2 µg/mL (≈ 2.73 µM) | MIC (Streptococcus uberis; isolate # 226): 0.06 µg/mL (≈ 0.0818 µM) | MIC (Streptococcus uberis; isolate # 227): 2 µg/mL (≈ 2.73 µM) | MIC ([5]; isolate # 208): 0.06 µg/mL (≈ 0.0818 µM) | MIC ([5]; isolate # 209): 0.06 µg/mL (≈ 0.0818 µM) | MIC ([5]; isolate # 210): 0.12 µg/mL (≈ 0.164 µM) | MIC ([5]; isolate # 211): 0.06 µg/mL (≈ 0.0818 µM) | MIC ([5]; isolate # 212): 0.12 µg/mL (≈ 0.164 µM) | MIC ([5]; isolate # 213): 0.12 µg/mL (≈ 0.164 µM) | MIC ([5]; isolate # 214): 0.06 µg/mL (≈ 0.0818 µM) | MIC ([5]; isolate # 215): 0.12 µg/mL (≈ 0.164 µM) | MIC ([5]; isolate # 216): 0.06 µg/mL (≈ 0.0818 µM) | MIC ([5]; isolate # 217): 0.12 µg/mL (≈ 0.164 µM) | Known range (MIC) [6]: 0.25 to 1 µg/mL | Known range (MIC) [7]: .03 to .12 µg/mL

From patent publication US10131744B2, “Antimicrobial polyamide compositions and mastitis treatment” (priority 2013, dated 2018)
